As usually defined, the GI50 is the concentration giving 50% growth inhibition.

For nine compounds, GI50 results are on record in ChEMBL document CHEMBL4616664, “Antineoplastic Agents. 607. Emetine Auristatins” (2020).

Holding throughout (type): functional
One test deals with KM-20L2. In words: Growth inhibition of human KM20L2 cells incubated for 48 hrs by sulforhodamine B assay. Particulars: KM-20L2, 48 h.
The subject of a further test is DU-145. In words: Growth inhibition of human DU145 cells incubated for 48 hrs by sulforhodamine B assay. Particulars: DU-145, 48 h. (In SRB staining, fixed cells bind dye roughly in proportion to their protein.)
A further test has as its system SF-268. In words: Growth inhibition of human SF268 cells incubated for 48 hrs by sulforhodamine B assay. Particulars: SF-268, 48 h.
Another test deals with BXPC-3. As to the kind of experiment: Growth inhibition of human BxPC3 cells incubated for 48 hrs by sulforhodamine B assay. The conditions noted are these: BXPC-3, 48 h.
A further test concerns MCF7. As to the kind of experiment: Growth inhibition of human MCF7 cells incubated for 48 hrs by sulforhodamine B assay. Particulars: MCF7, 48 h.
The test system of the next test is NCI-H460. As to the kind of experiment: Growth inhibition of human NCI-H460 cells incubated for 48 hrs by sulforhodamine B assay. The conditions noted are these: NCI-H460, 48 h.
Test [1] concerns Panel NCI-60 (60 carcinoma cell lines). As to the kind of experiment: Growth inhibition of human NCI60 cells.

Where a name gives a salt, the structure may show the parent alone.

In the case of `CC[C@H]1CN2CCc3cc(OC)c(OC)cc3[C@@H]2C[C@@H]1C[C@@H]1c2cc(OC)c(OC)cc2CCN1CCNC(=O)[C@H](C)[C@@H](OC)[C@@H]1CCCN1C(=O)C[C@@H](OC)[C@H]([C@@H](C)CC)N(C)C(=O)[C@@H](NC(=O)[C@H](C(C)C)N(C)C)C(C)C`, the GI50 was found to be 362 nM with KM-20L2; 181 nM with DU-145; 272 nM with SF-268; 1900 nM in the test on BXPC-3; 118 nM with MCF7; 4530 nM with NCI-H460.
Take `CC[C@H]1CN2CCc3cc(OC)c(OC)cc3[C@@H]2C[C@@H]1C[C@@H]1c2cc(OC)c(OC)cc2CCN1C(=O)CCN.O=C(O)C(F)(F)F.O=C(O)C(F)(F)F`: the GI50 in the test with KM-20L2 is above 10 µg/mL; in the test on DU-145, 10.1 µg/mL; with SF-268, above 10 µg/mL; with BXPC-3, 10.3 µg/mL; in the test on MCF7, above 10 µg/mL; in the test on NCI-H460 it was above 10 µg/mL.
On to `CC[C@H]1CN2CCc3cc(OC)c(OC)cc3[C@@H]2C[C@@H]1C[C@@H]1c2cc(OC)c(OC)cc2CCN1C(=O)[C@H](C)[C@@H](OC)[C@@H]1CCCN1`, for which the GI50 with KM-20L2 came out at 3420 nM; in the test on DU-145, 3420 nM; in the test on SF-268, 3650 nM; with BXPC-3, 2390 nM; in the test with MCF7 it was 1600 nM; in the test with NCI-H460, 5700 nM.
For `CC[C@H]1CN2CCc3cc(OC)c(OC)cc3[C@@H]2C[C@@H]1C[C@@H]1c2cc(OC)c(OC)cc2CCN1C(=O)CCNC(=O)OC(C)(C)C`, the concentration for 50% growth inhibition (GI50) in the test on KM-20L2 was above 10 µg/mL; in the test on DU-145 it was above 10 µg/mL; with SF-268, above 10 µg/mL; with BXPC-3 it was above 10 µg/mL; in the test with MCF7, 10 µg/mL; in the test with NCI-H460, above 10 µg/mL.
`CC[C@H]1CN2CCc3cc(OC)c(OC)cc3[C@@H]2C[C@@H]1C[C@@H]1c2cc(OC)c(OC)cc2CCN1C(=O)[C@H](C)[C@@H](OC)[C@@H]1CCCN1C(=O)C[C@@H](OC)[C@H]([C@@H](C)CC)N(C)C(=O)[C@@H](NC(=O)[C@H](C(C)C)N(C)C)C(C)C`: the GI50 was found to be 35.8 nM in the test with KM-20L2; 12.3 nM in the test on DU-145; 30.2 nM in the test on SF-268; 386 nM in the test with BXPC-3; 35.8 nM in the test with MCF7; 198 nM with NCI-H460.
`CC[C@H]1CN2CCc3cc(OC)c(OC)cc3[C@@H]2C[C@@H]1C[C@@H]1c2cc(OC)c(OC)cc2CCN1C(=O)CCNC(=O)[C@H](C)[C@@H](OC)[C@@H]1CCCN1C(=O)OC(C)(C)C`: the GI50 with KM-20L2 was above 10 µg/mL; in the test on DU-145, 10 µg/mL; in the test with SF-268, above 10 µg/mL; with BXPC-3 it was above 10 µg/mL; in the test with MCF7 it was above 10 µg/mL; in the test on NCI-H460, above 10 µg/mL.
For the compound `CC[C@H]1CN2CCc3cc(OC)c(OC)cc3[C@@H]2C[C@@H]1C[C@@H]1c2cc(OC)c(OC)cc2CCN1C(=O)CCNC(=O)[C@H](C)[C@@H](OC)[C@@H]1CCCN1C(=O)C[C@@H](OC)[C@H]([C@@H](C)CC)N(C)C(=O)[C@@H](NC(=O)[C@H](C(C)C)N(C)C)C(C)C`, the GI50 with KM-20L2 was 194 nM; with DU-145, 97.2 nM; with SF-268 it was 186 nM; in the test on BXPC-3, 3800 nM; in the test with MCF7, 159 nM; in the test with NCI-H460, 2830 nM.
Consider `CC[C@H]1CN2CCc3cc(OC)c(OC)cc3[C@@H]2C[C@@H]1C[C@H]1NCCc2cc(OC)c(OC)cc21` [EMETINE HYDROCHLORIDE], for which the GI50 was determined as 47 nM with KM-20L2, 36.1 nM in the test with DU-145, 56 nM with BXPC-3 and 54.2 nM in the test on MCF7.
As for `CC[C@H]1CN2CCc3cc(OC)c(OC)cc3[C@@H]2C[C@@H]1C[C@H]1NCCc2cc(OC)c(OC)cc21` [EMETINE], in test [1], the GI50 came to 27 nM. That is a double-digit nanomolar value.
